Laboratory results taken from patent publication US20180311244A1, “METHODS OF TREATING LIVER DISEASE” (Gilead Sciences, Inc., priority 2017, published 2018).
Marks after values point to notes of the source that are not given here.

How the values were obtained:
[1] = test system: rodent model of non-alcoholic steatohepatitis (NASH); assay: Picrosirius Red staining of liver in CDHFD rat NASH model; assay type: in vivo; conditions: CDHFD rats, 12 weeks; ASK1i 0.03% in chow, Formula (III) 10 mg/kg QD PO; FIG. 7
Experimental: The following study was conducted to evaluate the efficacy of the combination of an ASK1 inhibitor (ASK1i) and an ACC inhibitor (ACCi) in a rodent model of non-alcoholic steatohepatitis (NASH) relative to the efficacy of the individual agents alone in the model. In this model, NASH was induced in male Wistar rats by administration of a choline-deficient high fat diet (CDHFD).
Male Wistar (Crl:Wi(Han)) rats (aged 8-9 weeks at arrival) were acquired from Charles River, Raleigh, N.C. and used in the current studies. This study complie with all applicable sections of the Final Rules of the Animal Welfare Act regulations (Code of Federal Regulations, Title 9), the Public Health Service Policy on Humane Care and Use of Laboratory Animals from the Office of Laboratory Animal Welfare, and the Guide for the Care and Use of Laboratory Animals from the National Research Council. […]
Whole slide images of Picrosirius Red (PSR) stained slides were captured using a Leica AT2 scanner at 40× magnification. […] Quantitative image analysis was performed on the whole slide images using Visiopharm image analysis software (Visiopharm, Hoersholm, Denmark) to determine the extent and intensity of PSR. The total PSR-stained area was measured and expressed as a percentage of total liver area stained.

subjects with NASH = assay: 12-week study of ASK1 inhibitor, ACC inhibitor and combination in subjects with NASH; assay type: in vivo, human
Experimental: Centrally-read PDFF and MRE, and serum fibrosis markers were measured at baseline (BL), W4 and W12. Deuterated water was administered to measure fractional synthesis of lipids (de novo lipogenesis [DNL]).

[2] = W12, orally QD, Formula (II) 18 mg, Formula (IV) 20 mg, combination 18/20 mg
[3] = serum, W12, orally QD, Formula (II) 18 mg, Formula (IV) 20 mg, combination 18/20 mg

SMILES	Reduction of hepatic PSR (% area) [1]	PDFF compared with BL (in words) (subjects with NASH; 12 weeks orally QD, Formula (IV) p=0.006, combination p<0.001)	ALT compared with BL (in words) (subjects with NASH; 12 weeks orally QD, combination p=0.019)	PIII-NP compared with BL (in words) (subjects with NASH; 12 weeks orally QD, combination p=0.057)	TIMP-1 compared with BL (in words) (subjects with NASH; 12 weeks orally QD, p=0.049)	Grade 2 or higher AE, % of subjects (subjects with NASH; 12 weeks, orally QD, Formula (II) 18 mg, Formula (IV) 20 mg, combination 18/20 mg)	ALT, median relative (%) change from BL (subjects with NASH; [2])	GGT, median relative (%) change from BL (subjects with NASH; [2])	MRE, median relative (%) change from BL (subjects with NASH; [2])	MRI-PDFF, median relative (%) change from BL (subjects with NASH; [2])	≥30% reduction in MRI-PDFF, % of subjects (subjects with NASH; [2])	PIII-NP, median relative (%) change from BL (subjects with NASH; [3])	TIMP-1, median relative (%) change from BL (subjects with NASH; [3])
COc1ccccc1[C@H](Cn1c(=O)n(C(C)(C)C(=O)O)c(=O)c2c(C)c(-c3ncco3)sc21)O[C@H]1CC[C@@H](O)CC1 [Formula (III)]	50%												
COc1ccccc1[C@H](Cn1c(=O)n(C(C)(C)C(=O)O)c(=O)c2c(C)c(-c3ncco3)sc21)OC1CCOCC1 [Formula (IV)]		significant improvements	non-significant reductions	non-significant reductions	significant improvements	40%	−33.5%	−1.6%	−8.9%	−42.7* %	70%	−11.9%	−11.6* %
